Results from US20100285959A1, “HERBICIDAL MIXTURES” (priority 2006, published 2010).

Columns and labels:
[1] = tested on: smallflower umbrella sedge (CYPDI); test: Test 32 greenhouse, simulated flooded rice culture; type: in vivo, Cyperus difformis; conditions: postemergence to flood, 21 DAA
Description: A greenhouse trial was conducted to evaluate the effects of Compound 1 and isoxadifen-ethyl at different ratios in simulated flooded rice culture. Plastic pots (11-cm diameter) were partially filled with non-sterilized Tama silt loam soil containing a 15:57:28 ratio of sand, silt and clay and 2.9% organic matter. Seeds of Heteranthera limosa (ducksalad; HETLI), Cyperus difformis (smallflower umbrella sedge; CYPDI), one stand of Echinochloa crus-galli (barnyardgrass; ECHCG), and one stand of four rice seedlings (Oryza sativa cv. ‘M202’; ORYSA) were planted into a single 11-cm diameter pot for each rate and mixture of rates. To obtain this planting, C. difformis and H. limosa seeds were planted separately on the surface soil layer at particular locations within each pot. Water levels were brought to a puddled condition above the soil surface directly after planting. E. crus-galli and rice seeds were planted in cavity trays in the silt loam soil and transplanted at the 1.5 and 2.0 leaf stage, respectively. E. crus-galli and rice plants were transplanted to about 2-cm depth by transferring plugs from the cavity trays. Plantings were sequential so that these plant species all reached the 2.0- to 2.5-leaf stage in the 11-cm diameter pot at time of treatment. Plantings were established and maintained in a greenhouse with day and night temperatures of about 29.5 and 26.7° C. respectively; supplemental balanced lighting was provided to maintain a 16-hour photoperiod. Pots were fertilized periodically with a 200 ppm solution of commercial Scotts Peters® Professional® General Purpose 20-20-20 Water Soluble Fertilizer, amended to 10 ppm with a commercial iron-chelate micronutrient fertilizer. The solution was supplied at time of watering via a liquid fertilizer injector.
At treatment time, test pots were flooded to 3 cm above the soil surface and maintained at that water depth for the duration of the test. Chemical treatments were formulated in acetone and applied directly to the paddy water (i.e., postemergence to flood). Make-up volumes of acetone were added to ensure that all pots were treated with a consistent volume. Test pots were maintained in the greenhouse. A randomized complete block design was employed. Five replicates of each treatment, alone and in mixture, were used. Each species was visually evaluated for treatment effects by comparing those treated to untreated controls and rated for plant response after 21 days.

[2] = tested on: wild oat (AVEFA); test: Test 4 field trial, postemergence; type: in vivo, Avena fatua; design: scale not given here
Description: (§1) A field trial was conducted to evaluate the effects of mixtures of Compound 2 with commercial herbicides on spring wheat (TRZAS, Triticum aestivum L.) and several weed species. Wheat seeds (cv. ‘AC Intrepid’) were planted in late spring season, 3.8 cm deep in a loam soil having 2.7% organic matter and a pH of 7. Plots were 6 m long by 2.5 m wide. The field was managed using no-till practices. The plots were arranged in a randomized complete block design with each treatment being replicated four times. Treatments were applied postemergence 25 days after planting using a backpack sprayer delivering a spray volume of 55 L/ha using a pressure of 276 kPa. […] Compound 2 and clodinafop treatments, alone and in combination, also included a surfactant. Weed species present in the experimental plots in sufficient quantity to be evaluated included wild oat (AVEFA, Avena fatua L.), common lambsquarters (CHEAL, Chenopodium album L.), kochia (KCHSC, Kochia scoparia (L.) Schrad.), wild buckwheat (POLCO, Polygonum convolvulus L.), Russian thistle (SASKR, Salsola kali L. ssp. ruthenica (Iljin) Soo), and field pennycress (THLAR, Thlaspi arvense L.). […] Common lambsquarters was evaluated only at 14 days after application. […] Results are the means of the four replicates.

[3] = tested on: velvetleaf (ABUTH); test: Test 15 greenhouse, postemergence; conditions: 12 DAA
[4] = tested on: oak species (QUESS); test: Test 13 field trial, postemergence, brush weeds; type: in vivo, Quercus L. spp.; conditions: 56 DAA; g a.i./ha: Cpd 2 250; Fosamine-ammonium 6700
Source text: Plots were established in non-crop land and were 6.1 m long by 3.0 m wide. […] Treatments were applied postemergence to the brush weeds using a backpack sprayer delivering a spray volume of 468 L/ha using a pressure of 241 kPa. […] All treatments also included a surfactant. […] Results are the means of the three replicates.

[5] = tested on: wild chamomile (MATCH); test: Test 24 growth chamber, postemergence; type: in vivo, Matricaria chamomilla; conditions: 17 DAA
Description: (§2) Plants were treated postemergence at the 2-4 leaf growth stage, and each treatment was replicated three times. […] Plants were watered as needed. […] Results for barley and wheat are the means across varieties of the three replicates, and results for the weeds are the means of the three replicates.

[6] = tested on: wild buckwheat (POLCO); test: Test 4 field trial, postemergence; type: in vivo, Polygonum convolvulus
Description: as §1

[7] = tested on: common chickweed (STEME); test: Test 24 growth chamber, postemergence; type: in vivo, Stellaria media; conditions: 17 DAA
Description: as §2

[8] = tested on: giant ragweed (AMBTR); test: Test 25 field trial, postemergence, growth as percent of control; type: in vivo, Ambrosia trifida; conditions: 14 DAA
Source text: Corn seeds (hybrid ‘Pioneer 31G96 RR’) were planted in mid spring season, 3.8 cm deep in a clay loam soil having 2% organic matter and a pH of 6.6. Plots were 6.1 m long by 3.0 m wide with rows spaced 76 cm apart. Seeds were spaced 15 cm apart within the rows. The field was managed using conventional tillage practices. […] Giant ragweed and Pennsylvania smartweed could only be evaluated 14 days after application. […] Results are the means of the three replicates. This growth inhibition data was converted to results in the form of “plant growth as a percent of control plant growth” using the calculation “100 minus growth inhibition”.
When this form of Colby's Equation is used, if the observed effects on weeds are less than the expected values, the mixture is synergistic.

[9] = tested on: velvetleaf (ABUTH); test: Test 16 greenhouse, post- and preemergence; conditions: 15 DAA
[10] = 14 DAA, Cpd 2 30 g a.i./ha alone or with clodinafop 56 or fenoxaprop 90
[11] = 14 DAA, Cpd 2 60 g a.i./ha alone or with clodinafop 56 or fenoxaprop 90
[12] = 35 DAA, Cpd 2 30 g a.i./ha alone or with clodinafop 56 or fenoxaprop 90
[13] = 35 DAA, Cpd 2 60 g a.i./ha alone or with clodinafop 56 or fenoxaprop 90

Nc1nc(C2CC2)nc(C(=O)O)c1Cl [Compound 1, 6-amino-5-chloro-2-cyclopropyl-4-pyrimidinecarboxylic acid]
CYPDI Obs ([1]; Cpd 1 31.25 g a.i./ha): 80 | CYPDI Obs ([1]; Cpd 1 62.5 g a.i./ha): 74 | CYPDI Obs ([1]; Cpd 1 125 g a.i./ha): 92

COC(=O)c1nc(C2CC2)nc(N)c1Cl [Compound 2, methyl 6-amino-5-chloro-2-cyclopropyl-4-pyrimidinecarboxylate]
AVEFA Obs [2, 10]: 0 | AVEFA Obs [2, 11]: 0 | AVEFA Obs [2, 12]: 0 | AVEFA Obs [2, 13]: 0 | AVEFA Obs ([2]; 55 DAA, Cpd 2 30 g a.i./ha alone or with clodinafop 56 or fenoxaprop 90): 0 | AVEFA Obs ([2]; 55 DAA, Cpd 2 60 g a.i./ha alone or with clodinafop 56 or fenoxaprop 90): 0 | Obs response, scale 0 to 100 ([3]; 15 g a.i./ha): 31 | Obs response, scale 0 to 100 ([3]; 30 g a.i./ha): 38 | Obs response, scale 0 to 100 ([3]; 45 g a.i./ha): 61 | QUESS Obs [4]: 33 | MATCH Obs (scale 0 to 100) ([5]; Cpd 2 4 g a.i./ha): 55 | MATCH Obs (scale 0 to 100) ([5]; Cpd 2 8 g a.i./ha): 65 | MATCH Obs (scale 0 to 100) ([5]; Cpd 2 16 g a.i./ha): 72 | POLCO Obs [6, 10]: 61 | POLCO Obs [6, 11]: 63 | POLCO Obs [6, 12]: 51 | POLCO Obs [6, 13]: 55 | STEME Obs (scale 0 to 100) ([7]; Cpd 2 4 g a.i./ha): 47 | STEME Obs (scale 0 to 100) ([7]; Cpd 2 8 g a.i./ha): 63 | STEME Obs (scale 0 to 100) ([7]; Cpd 2 16 g a.i./ha): 67 | AMBTR Obs (percent of control) ([8]; Cpd 2 30 g a.i./ha): 5% | AMBTR Obs (percent of control) ([8]; Cpd 2 45 g a.i./ha): 0% | Obs response, scale 0 to 100 ([9]; Postemergence, 15 g a.i./ha): 33 | Obs response, scale 0 to 100 ([9]; Postemergence, 30 g a.i./ha): 38 | Obs response, scale 0 to 100 ([9]; Postemergence, 45 g a.i./ha): 61 | Obs response, scale 0 to 100 ([9]; Preemergence, 15 g a.i./ha): 23 | Obs response, scale 0 to 100 ([9]; Preemergence, 30 g a.i./ha): 38 | Obs response, scale 0 to 100 ([9]; Preemergence, 45 g a.i./ha): 42
